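These data come from cells grown in 96-well plates and exposed to compound for 48 hours at five concentrations. Definition used: TGI = concentration required for complete inhibition of growth.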
Key:
Assay in all cases: NCI tumour cell line growth inhibition, 48 h
A498 renal = test system: A498 renal
A549 NSCLC = test system: A549 NSCLC
CAKI-1 renal = test system: CAKI-1 renal
CCRF-CEM leukemia = test system: CCRF-CEM leukemia
COLO 205 colon = test system: COLO 205 colon
DLD-1 colon = test system: DLD-1 colon
DMS 114 small cell lung = test system: DMS 114 small cell lung
DMS 273 small cell lung = test system: DMS 273 small cell lung
EKVX NSCLC = test system: EKVX NSCLC
HCC-2998 colon = test system: HCC-2998 colon
HCT-15 colon = test system: HCT-15 colon
HL-60(TB) leukemia = test system: HL-60(TB) leukemia
HOP-18 NSCLC = test system: HOP-18 NSCLC
HOP-62 NSCLC = test system: HOP-62 NSCLC
HOP-92 NSCLC = test system: HOP-92 NSCLC
HT29 colon = test system: HT29 colon
IGROV1 ovarian = test system: IGROV1 ovarian
K-562 leukemia = test system: K-562 leukemia
KM12 colon = test system: KM12 colon
KM20L2 colon = test system: KM20L2 colon
LOX IMVI melanoma = test system: LOX IMVI melanoma
M19-MEL melanoma = test system: M19-MEL melanoma
MALME-3M melanoma = test system: MALME-3M melanoma
MCF7 breast = test system: MCF7 breast
MOLT-4 leukemia = test system: MOLT-4 leukemia
NCI-H226 lung = test system: NCI-H226 lung
NCI-H23 lung = test system: NCI-H23 lung
NCI-H460 lung = test system: NCI-H460 lung
NCI-H522 lung = test system: NCI-H522 lung
NCI/ADR-RES ovarian = test system: NCI/ADR-RES ovarian
OVCAR-3 ovarian = test system: OVCAR-3 ovarian
OVCAR-4 ovarian = test system: OVCAR-4 ovarian
OVCAR-5 ovarian = test system: OVCAR-5 ovarian
OVCAR-8 ovarian = test system: OVCAR-8 ovarian
P388 leukemia = test system: P388 leukemia
P388/ADR leukemia = test system: P388/ADR leukemia
RPMI-8226 leukemia = test system: RPMI-8226 leukemia
RXF 393 renal = test system: RXF 393 renal
SF-268 CNS = test system: SF-268 CNS
SF-295 CNS = test system: SF-295 CNS
SF-539 CNS = test system: SF-539 CNS
SK-MEL-2 melanoma = test system: SK-MEL-2 melanoma
SK-MEL-28 melanoma = test system: SK-MEL-28 melanoma
SK-MEL-5 melanoma = test system: SK-MEL-5 melanoma
SK-OV-3 ovarian = test system: SK-OV-3 ovarian
SN12C renal = test system: SN12C renal
SN12K1 renal = test system: SN12K1 renal
SNB-19 CNS = test system: SNB-19 CNS
SNB-75 CNS = test system: SNB-75 CNS
SNB-78 CNS = test system: SNB-78 CNS
SW-620 colon = test system: SW-620 colon
U251 CNS = test system: U251 CNS
UACC-257 melanoma = test system: UACC-257 melanoma
UACC-62 melanoma = test system: UACC-62 melanoma
UO-31 renal = test system: UO-31 renal
XF 498 CNS = test system: XF 498 CNS
786-0 renal = test system: 786-0 renal
ACHN renal = test system: ACHN renal
HCT-116 colon = test system: HCT-116 colon
LXFL 529 NSCLC = test system: LXFL 529 NSCLC
M14 melanoma = test system: M14 melanoma
RXF-631 renal = test system: RXF-631 renal
SR leukemia = test system: SR leukemia
TK-10 renal = test system: TK-10 renal

Compound `CC(C)CCCCCCCCCCCCC(=O)NCC(=O)NC1C(C)OC(Nc2ncnc3c2ncn3C)C(O)C1O` (centres undefined) has a TGI (A498 renal) of 24.2 µM, a TGI (A549 NSCLC) greater than 100 µM and a TGI (CAKI-1 renal) of 5.6 µM. It also gave a TGI (CCRF-CEM leukemia) greater than 100 µM, a TGI (COLO 205 colon) greater than 100 µM and a TGI (DLD-1 colon) greater than 100 µM. The TGI (DMS 114 small cell lung) was greater than 100 µM, the TGI (DMS 273 small cell lung) was 21.6 µM and the TGI (EKVX NSCLC) was greater than 100 µM. It also gave a TGI (HCC-2998 colon) of 11.6 µM, a TGI (HCT-15 colon) greater than 100 µM and a TGI (HL-60(TB) leukemia) of 6.08 µM. The TGI (HOP-18 NSCLC) was greater than 30.1 µM, the TGI (HOP-62 NSCLC) was greater than 34.2 µM and the TGI (HOP-92 NSCLC) was 8.41 µM. It also gave a TGI (HT29 colon) greater than 100 µM, a TGI (IGROV1 ovarian) greater than 100 µM and a TGI (K-562 leukemia) greater than 100 µM. For the same compound, the TGI (KM12 colon) was greater than 100 µM, the TGI (KM20L2 colon) was greater than 100 µM and the TGI (LOX IMVI melanoma) was greater than 100 µM. For the same compound, the TGI (M19-MEL melanoma) was greater than 100 µM, the TGI (MALME-3M melanoma) was greater than 100 µM and the TGI (MCF7 breast) was greater than 100 µM. The TGI (MOLT-4 leukemia) was greater than 100 µM, the TGI (NCI-H226 lung) was 15.2 µM and the TGI (NCI-H23 lung) was greater than 100 µM. The TGI (NCI-H460 lung) was greater than 100 µM, the TGI (NCI-H522 lung) was 31.9 µM and the TGI (NCI/ADR-RES ovarian) was greater than 100 µM. It also gave a TGI (OVCAR-3 ovarian) greater than 100 µM, a TGI (OVCAR-4 ovarian) greater than 100 µM and a TGI (OVCAR-5 ovarian) of 97 µM. It also gave a TGI (OVCAR-8 ovarian) greater than 100 µM, a TGI (P388 leukemia) greater than 100 µM and a TGI (P388/ADR leukemia) greater than 100 µM. For the same compound, the TGI (RPMI-8226 leukemia) was greater than 100 µM, the TGI (RXF 393 renal) was greater than 25.7 µM and the TGI (SF-268 CNS) was greater than 100 µM. The TGI (SF-295 CNS) was greater than 100 µM, the TGI (SF-539 CNS) was 13.1 µM and the TGI (SK-MEL-2 melanoma) was greater than 100 µM. The TGI (SK-MEL-28 melanoma) was greater than 100 µM, the TGI (SK-MEL-5 melanoma) was greater than 100 µM and the TGI (SK-OV-3 ovarian) was greater than 94.6 µM. It also gave a TGI (SN12C renal) greater than 100 µM, a TGI (SN12K1 renal) greater than 100 µM and a TGI (SNB-19 CNS) greater than 31 µM. It also gave a TGI (SNB-75 CNS) of 27.9 µM, a TGI (SNB-78 CNS) greater than 100 µM and a TGI (SW-620 colon) greater than 100 µM. For the same compound, the TGI (U251 CNS) was 11.3 µM, the TGI (UACC-257 melanoma) was greater than 100 µM and the TGI (UACC-62 melanoma) was greater than 100 µM. It also gave a TGI (UO-31 renal) of 16.9 µM and a TGI (XF 498 CNS) greater than 62 µM.
In the case of `CCOC(=O)C1=C(C)NC(=S)NC1c1ccccc1` (centres undefined), the TGI (786-0 renal) is reported as greater than 100 µM, the TGI (A498 renal) is reported as greater than 100 µM and the TGI (A549 NSCLC) is reported as greater than 100 µM. For the same compound, the TGI (ACHN renal) was greater than 100 µM, the TGI (CAKI-1 renal) was greater than 41.2 µM and the TGI (CCRF-CEM leukemia) was greater than 76.9 µM. The TGI (COLO 205 colon) was greater than 60.7 µM, the TGI (DLD-1 colon) was greater than 100 µM and the TGI (DMS 114 small cell lung) was greater than 57.2 µM. The TGI (DMS 273 small cell lung) was greater than 100 µM, the TGI (EKVX NSCLC) was greater than 100 µM and the TGI (HCC-2998 colon) was greater than 100 µM. For the same compound, the TGI (HCT-116 colon) was greater than 100 µM, the TGI (HCT-15 colon) was greater than 56 µM and the TGI (HL-60(TB) leukemia) was greater than 100 µM. It also gave a TGI (HOP-18 NSCLC) of 98.4 µM, a TGI (HOP-62 NSCLC) greater than 100 µM and a TGI (HOP-92 NSCLC) greater than 100 µM. The TGI (HT29 colon) was greater than 100 µM, the TGI (IGROV1 ovarian) was greater than 100 µM and the TGI (K-562 leukemia) was greater than 75.1 µM. The TGI (KM12 colon) was greater than 100 µM, the TGI (KM20L2 colon) was greater than 56.5 µM and the TGI (LOX IMVI melanoma) was greater than 100 µM. For the same compound, the TGI (LXFL 529 NSCLC) was greater than 100 µM, the TGI (M14 melanoma) was greater than 100 µM and the TGI (M19-MEL melanoma) was greater than 58.9 µM. The TGI (MALME-3M melanoma) was greater than 100 µM, the TGI (MOLT-4 leukemia) was greater than 100 µM and the TGI (NCI-H226 lung) was greater than 100 µM. The TGI (NCI-H23 lung) was greater than 100 µM, the TGI (NCI-H460 lung) was greater than 100 µM and the TGI (NCI-H522 lung) was greater than 100 µM. It also gave a TGI (OVCAR-3 ovarian) greater than 100 µM, a TGI (OVCAR-4 ovarian) greater than 100 µM and a TGI (OVCAR-5 ovarian) greater than 100 µM. It also gave a TGI (OVCAR-8 ovarian) greater than 100 µM, a TGI (RPMI-8226 leukemia) greater than 65.6 µM and a TGI (RXF 393 renal) greater than 100 µM. The TGI (RXF-631 renal) was greater than 100 µM, the TGI (SF-268 CNS) was greater than 100 µM and the TGI (SF-295 CNS) was greater than 100 µM. It also gave a TGI (SF-539 CNS) greater than 100 µM, a TGI (SK-MEL-2 melanoma) greater than 100 µM and a TGI (SK-MEL-28 melanoma) greater than 100 µM. For the same compound, the TGI (SK-MEL-5 melanoma) was greater than 100 µM, the TGI (SK-OV-3 ovarian) was greater than 100 µM and the TGI (SN12C renal) was greater than 100 µM. For the same compound, the TGI (SNB-19 CNS) was greater than 22.5 µM, the TGI (SNB-75 CNS) was greater than 100 µM and the TGI (SNB-78 CNS) was greater than 100 µM. For the same compound, the TGI (SR leukemia) was 50.2 µM, the TGI (TK-10 renal) was greater than 100 µM and the TGI (U251 CNS) was greater than 56.2 µM. It also gave a TGI (UACC-257 melanoma) greater than 100 µM, a TGI (UACC-62 melanoma) greater than 100 µM and a TGI (UO-31 renal) greater than 57.1 µM. It also gave a TGI (XF 498 CNS) of 99.7 µM.

Reference: PubChem BioAssay (NCI)
